Assay results published in patent US20100216255A1, “METHODS OF DETERMINING ACTIVE LEVELS OF DRUGS IN FLUID SAMPLES” (CLINICAL REFERENCE LABORATORY, priority 2001, published 2010).

target: T1, Beta-1-adrenergic receptor (Homo sapiens, UniProt P08588); test: Cell receptor assay, competition with radiolabeled 125-iodocyanopindolol; type: binding; details: cut-off control, 20 ug/ml Atenolol in drug negative urine, diluted 1 to 10 before assay; 2 h at room temperature; counts inversely related to unlabeled ligand
T1 construct: purchased Sigma Chemical RBIB-143
T1 sequence (P08588 whole entry, species assumed): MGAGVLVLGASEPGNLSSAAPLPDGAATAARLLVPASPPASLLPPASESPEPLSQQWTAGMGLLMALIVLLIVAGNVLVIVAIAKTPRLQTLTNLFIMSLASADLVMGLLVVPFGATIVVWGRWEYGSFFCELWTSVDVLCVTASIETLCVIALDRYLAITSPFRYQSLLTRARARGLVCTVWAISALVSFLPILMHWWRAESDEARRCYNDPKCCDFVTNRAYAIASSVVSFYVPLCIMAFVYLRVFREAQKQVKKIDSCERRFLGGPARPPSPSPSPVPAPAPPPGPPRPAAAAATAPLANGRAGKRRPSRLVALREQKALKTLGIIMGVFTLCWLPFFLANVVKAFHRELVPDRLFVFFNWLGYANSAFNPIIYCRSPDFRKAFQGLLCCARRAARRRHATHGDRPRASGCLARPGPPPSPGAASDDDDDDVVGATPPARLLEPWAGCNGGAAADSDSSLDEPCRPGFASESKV
Experimental: This example provides a cell receptor assay for B1 adrenergic receptors and tests the accuracy of the assay. Patient urine that may or may not contain target ligand and a radiolabeled competitive ligand are added to a test tube containing a limited concentration of cell membrane containing beta-1-adrenergic receptors. The unlabeled ligand in the patient's urine competes with the labeled ligand for the receptor sites during an incubation period. Following incubation the tubes are centrifuged to precipitate the cell membrane-receptors. The solution containing unbound ligand is decanted and the radioactivity retained in the tubes is detected in a gamma counter. The amount of radioactivity bound is indirectly proportional to the concentration of unlabeled ligand present in the patient's urine. […] Adjust the pH to 7.4 with concentrated hydrochloric acid and fill to volume with deionized water. […] Thaw the stock solution of membrane and dilute to 30 milliliter with Tris working buffer. […] The working solution of radiolabel is prepared by diluting the stock 1 to 30 with Tris working buffer. […] Atenolol, propranolol and metoprolol were diluted with HPLC grade ethyl alcohol (Aldrich Chemical Company Milwaukee, Wis.) to produce a 1.0 mg/ml stock solution for each drug. […] The total radioactivity was detected on Packard Cobra II Auto Gamma counter (Packard Instrument Company Downers Grove, Ill.).

| Counts per Minute | SMILES |
| --- | --- |
| 5117 | CC(C)NCC(O)COc1ccc(CC(N)=O)cc1 (stereo not shown) [Atenolol] |

target: Angiotensin Converting Enzyme (ACE) (Homo sapiens, UniProt P12821); test: ACE enzyme inhibition assay on samples from individuals reporting an ACE-inhibiting drug; details: urine samples from individuals self-reporting the drug; count out of the LISTED number
Sequence (P12821 30-1232 limits assumed): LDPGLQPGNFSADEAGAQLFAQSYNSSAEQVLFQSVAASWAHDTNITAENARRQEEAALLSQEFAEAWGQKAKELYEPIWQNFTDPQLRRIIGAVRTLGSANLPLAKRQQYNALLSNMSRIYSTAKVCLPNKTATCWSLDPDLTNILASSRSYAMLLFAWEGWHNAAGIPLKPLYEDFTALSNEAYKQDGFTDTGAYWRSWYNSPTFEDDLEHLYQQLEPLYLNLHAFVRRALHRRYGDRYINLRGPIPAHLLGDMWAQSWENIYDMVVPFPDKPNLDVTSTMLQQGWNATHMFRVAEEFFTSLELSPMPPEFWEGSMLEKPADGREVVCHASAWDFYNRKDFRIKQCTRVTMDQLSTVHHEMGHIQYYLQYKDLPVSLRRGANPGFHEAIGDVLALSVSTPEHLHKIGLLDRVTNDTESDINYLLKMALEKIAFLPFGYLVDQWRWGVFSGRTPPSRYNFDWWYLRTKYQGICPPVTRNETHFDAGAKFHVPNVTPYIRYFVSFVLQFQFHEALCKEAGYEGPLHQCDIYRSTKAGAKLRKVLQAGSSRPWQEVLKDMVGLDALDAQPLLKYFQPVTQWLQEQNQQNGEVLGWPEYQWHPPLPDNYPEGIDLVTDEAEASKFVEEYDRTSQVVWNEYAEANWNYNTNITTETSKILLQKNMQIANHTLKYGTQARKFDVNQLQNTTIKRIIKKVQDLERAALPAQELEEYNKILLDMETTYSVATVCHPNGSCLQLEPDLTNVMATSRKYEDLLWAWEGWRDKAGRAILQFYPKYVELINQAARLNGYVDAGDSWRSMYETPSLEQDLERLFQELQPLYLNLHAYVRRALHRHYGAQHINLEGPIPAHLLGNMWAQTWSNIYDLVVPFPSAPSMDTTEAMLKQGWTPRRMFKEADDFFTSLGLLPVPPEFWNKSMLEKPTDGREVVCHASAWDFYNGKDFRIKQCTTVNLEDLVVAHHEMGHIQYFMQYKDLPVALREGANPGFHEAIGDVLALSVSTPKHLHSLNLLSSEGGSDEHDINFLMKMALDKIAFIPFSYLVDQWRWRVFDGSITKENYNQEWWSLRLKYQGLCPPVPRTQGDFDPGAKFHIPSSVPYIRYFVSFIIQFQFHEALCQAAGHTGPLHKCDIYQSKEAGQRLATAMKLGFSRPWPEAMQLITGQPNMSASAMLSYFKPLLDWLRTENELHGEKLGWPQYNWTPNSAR
Experimental: The bottle was then inverted a few times and then put on a shaker (Clay Adams CA6000 Centrifuge Becton Dickinson Microbiology System Sparks, Md.) at speed setting 2 for ten minutes. […] The pH was adjusted to 8.2 with 6 N hydrochloric acid.
Using the above-described reagents, a Hamilton MicroLab AT pipetting station was used to transfer 100 μl of the ACE serum in Tris buffer to each well of a microtiter plate. Next, 25 μl of the cut-off level calibrator, controls and unknown were added to their corresponding well locations with the Hamilton MicroLab AT, as shown in Table 1.
Five different patient samples were then added to five other wells. The microtiter plate was shaker on Titer Plate Shaker (Lab Line Instruments, Inc. Melrose, Ill.) at a setting of 2 for at least five minutes before pipetting 100 μl of the substrate FAPGG into each well. Next, solution was mixed by shaking the microtiter plate on the shaker at a speed setting of 2 for one minute. The microtiter plate was placed in the Spectra Mac Plus (Molecular Devices, Sunnyvale, Calif.) plate reader and the optical density of each sample at 340 nanoMeter was determined. The microtiter plate was then incubated at 37° C. for two hours. The optical density was again determined on the plate reader. This two-hour reading of optical density was then subtracted from the initial reading of optical density and termed the “delta OD 340.”
Fluid samples were obtained from individuals reporting that they were currently taking an ACE-inhibiting drug. […] The medications reported by the patients included eight different medications of the ACE-inhibiting drug family. Each individual reported taking only one specific ACE-inhibiting drug. Thus, this example tests the ability of the assay to identify individuals on ACE-inhibiting drugs without prior knowledge of the specific drug being taken.

| DETECTED (samples testing positive for ACE-inhibiting drugs) | SMILES |
| --- | --- |
| 14 | CCOC(=O)[C@H](CCc1ccccc1)N[C@H]1CCc2ccccc2N(CC(=O)O)C1=O [BENAZEPRIL, benazepril] |
| 5 | CCOC(=O)[C@H](CCc1ccccc1)N[C@@H](C)C(=O)N1CCC[C@H]1C(=O)O [ENALAPRIL, enalapril] |
| 22 | NCCCC[C@H](N[C@@H](CCc1ccccc1)C(=O)O)C(=O)N1CCC[C@H]1C(=O)O [LISINOPRIL, lisinopril] |
| 3 | CCOC(=O)[C@H](CCc1ccccc1)N[C@@H](C)C(=O)N1Cc2cc(OC)c(OC)cc2C[C@H]1C(=O)O [MOEXIPRIL, moexipril] |
| 15 | CCOC(=O)[C@H](CCc1ccccc1)N[C@@H](C)C(=O)N1Cc2ccccc2C[C@H]1C(=O)O [QUINAPRIL, quinapril] |
| 2 | CCOC(=O)[C@H](CCc1ccccc1)N[C@@H](C)C(=O)N1[C@H](C(=O)O)C[C@@H]2CCC[C@@H]21 [RAMIPRIL, ramipril] |
